# From patent publication US20230219957A1, “SMALL MOLECULE CB002-ANALOGES RESTORE THE P53 PATHWAY AND TARGET S-PHASE CHECKPOINT” (Brown University, priority 2020, published 2023)
# How the values were obtained:
# Type in all cases: cell-based, human
# SW480 colon cancer cells [1] = assay: Propidium iodide / BrdU cell cycle analysis of synchronized cells
# Procedure: (§1) Cell synchronization. Synchronized cells were synchronized by double thymidine block. Cells were treated with […] thymidine for sixteen hours. The drug was removed and replaced by complete growth media for eight hours. Cells were treated for the second time with […] thymidine for sixteen hours. At this point, cells were treated and harvested.
# Propidium iodide and BrdU flow cytometry assay. Cells were seeded at a density of 5×10^5 in a 6-well plate and treated for forty-eight to seventy-two hours. After treatment, floating cells were collected, and adherent cells were trypsinized, pelleted, washed with phosphate-buffered saline, and fixed in 70% ethanol overnight. For propidium iodide (PI) based Sub-G1 apoptosis analysis, cells were spun down after fixation and resuspended in phosphate-citric acid buffer (0.2M Na2HPO4+0.1M Citric Acid, pH 7.8) at room temperature for five minutes. The cell pellet was resuspended for staining with 50 μg/mL PI and 250 μg/mL ribonuclease (RNase A). For BrdU analysis, after cell fixation, cells were spun down and resuspended in one mL of 2N HCL with 0.5% Triton X-100 for thirty minutes at room temperature. Cells were pelleted, washed with phosphate-buffered saline, and resuspended in 20 μL BrdU antibody (BD Biosciences, cat no. 347580) diluted in 0.5% Tween 20/PBS/5% bovine serum albumin for thirty minutes at room temperature. Cells were then spun down and resuspended in 140 μg/mL goat-anti mouse Alexa Fluor 488 (#A-11008, Thermo Fisher Scientific, Waltham, Mass., USA) in 0.5% Tween 20 in phosphate-buffered saline/5% bovine serum albumin for thirty minutes at room temperature. Cells were then spun down and resuspended in 5 μg/mL PI: 250 μg/mL RNase A solution. Samples were analyzed on an Epics Elite Epics flow cytometer (Coulter-Beckman).
# BrdU analysis gating. Cell aggregates were gated out in the PI Peak vs DNA PI histogram. BrdU lower limit intensity was set on the upper limit of the negative control. The no BrdU antibody assays and no goat-anti mouse Alexa Fluor 488 antibody assays were the negative controls. […] Gating was held constant throughout the samples within a given assay.
# [2] = system: colorectal cancer patient-derived organoid; assay: Cytotoxicity and immunofluorescence in patient-derived organoid; conditions: for cleaved caspase-3 staining (apoptotic cells): IC50 doses; for ethidium homodimer staining (dead cells): compared to vehicle control
# Procedure: CellTiter-Glo® luminescent cell viability assay. Cells were seeded in 96-well plates at a density of 5×10^3 cells per well. 20 μL of CellTiter-Glo® Reagent was added directly to the wells, following the manufacturers protocol. The bioluminescence signal was determined using an IVIS imaging system, optionally at a period of 48-72 hours after treatment.
# Immunohistochemistry. 30,000 cells/well were seeded in 8-chamber slides. Cells were washed with phosphate-buffered saline at the harvesting time point and fixed with 4% parafornaldehyde for 25 minutes. Cells were then washed with phosphate-buffered saline and permeabilized with 0.2% Triton X-100 for 5-10 minutes. Cells were then washed with phosphate-buffered saline and incubated overnight 1:100 with the primary antibody Cyt-C (#sc-13560, Santa Cruz Biotechnology, Santa Cruz, Calif., USA), Tom-20 (#42406), commercially available from Cell Signaling Technology, Inc., Danvers, Mass. USA), cells were washed with phosphate-buffered saline and incubated with secondary antibody 1:200 goat-anti mouse Alexa Fluor 488 (#A-11008, Thermo Fisher Scientific, Waltham, Mass., USA) and Cy3 AffiniPure Donkey anti-rabbit (#711-165-152, Jackson ImmunoResearch, West Grove, Pa., USA) for one hour followed by phosphate-buffered saline washing, 1:400 Dapi staining, washed with phosphate-buffered saline, and imaged. Organoid viability imaging was determined by CellTrace™ Calcein Green (#C34852, Thermo Fisher Scientific, Waltham, Mass., USA), Ethidium Homodimer-1 (#E1169, Thermo Fisher Scientific, Waltham, Mass., USA), Ki67 incubated at 37° C. for one hour then washed with phosphate-buffered saline and imaged. Imaging was done using a Leica Confocal Microscope.
# SW480 colon cancer cells [3] = assay: Immunoblot of cell cycle markers; conditions: for M-phase marker pH3(Ser10) / pcdc2(Tyr15) and pcdc25c(Ser16) expression: combination with etoposide; for S-phase marker p-RPA-RPA2(S8) expression: synchronized SW480, time-course after release
# Procedure: Immunoblotting (additional method). After treatment, floating cells were collected, and adherent cells were trypsinized, washed with phosphate-buffered saline, and lysed with RIPA buffer (Sigma-Aldrich, St. Louis, Mo., USA) for thirty minutes to one hour at 4° C. Protein lysates were pelleted. The supernatant was collected. Total protein per sample was determined using a Pierce™ BCA Protein Assay Kit (Thermo Fisher Scientific, Waltham, Mass., USA). Proteins were denatured using 1× NuPAGE® LDS sample buffer (Thermo Fisher Scientific, Waltham, Mass., USA) and reduced with 2-mercaptoethanol (Sigma-Aldrich, St. Louis, Mo., USA). Protein lysates were boiled for fifteen min at 95° C. After protein normalization, samples were loaded into NuPAGE™ Novex™ 4-12% Bis-Tris Protein Gels (Thermo Fisher Scientific, Waltham, Mass., USA). Gel electrophoresis was performed with NuPAGE™ MES SDS Running Buffer. Proteins were transferred onto an Immobilon-P membrane (PVDF, EMD Millipore, Taunton, Mass., USA) using a Bio-Rad system with a 10% Tris-Glycine and 10% methanol transfer buffer diluted in distilled and deionized water. Membranes were blocked with 10% milk in Tris-buffered saline with Tween 20 (TBST) solution. The membranes were incubated overnight with the primary antibody, washed with TBST, and incubated with secondary antibody for one hour. Primary antibody incubations were performed in 5% milk or 5% bovine serum albumin in TBST solution as per manufacturer instructions. Signal was detected using a chemiluminescent detection kit, followed by autoradiography. The following antibodies were used: p53 (1:1000, #sc-126, Santa Cruz Biotechnology, Santa Cruz, Calif., USA), p73 (1:1000, #A300-126A, Bethyl Laboratories), Noxa (1:250, #OP180, EMD Millipore, Taunton, Mass., USA), DR5 (#3696), cleaved PARP (#9546), phospho-RPA32/RPA2 (#54762), p-cdc2 (#9111), p-cdc25c, pH3 (#3377) (1:1,000; Cell Signaling Technology, Inc., Danvers, Mass. USA) and β-actin (1:10000, A5441, Sigma).
# as §1
Structure (SMILES),"S-phase delay, difference (SW480 colon cancer cells [1]; six-eight hours of treatment, combined with etoposide) [fold]",cleaved caspase-3 staining (apoptotic cells) [2],ethidium homodimer staining (dead cells) [2],M-phase marker pH3(Ser10) (SW480 colon cancer cells [3]; synchronized SW480),pcdc2(Tyr15) and pcdc25c(Ser16) expression (SW480 colon cancer cells [3]; synchronized SW480),S-phase marker p-RPA-RPA2(S8) expression (SW480 colon cancer cells [3]),S-phase accumulation (SW480 colon cancer cells [1]; eight hours following release from synchronization),"increase of cells in S-phase (SW480 colon cancer cells [1]; twelve hours, PI and BrdU co-staining, compared to DMSO vehicle control) [%]",G2-phase cells versus etoposide (SW480 colon cancer cells [1]; twenty-four hours),organoid size (calcein staining) [2],"Ki-67 staining (proliferating cells) ([2]; seventy-two hours, dose-dependent)",cytotoxicity (cell viability response curve) ([2]; versus CB002 parent compound),"pcdc2(Tyr15) and pcdc25c(Ser16) protein expression (SW480 colon cancer cells [3]; single agent, synchronized SW480)",p21 (SW480 colon cancer cells [3]; time-course after synchronization release),"Cyclin A expression (SW480 colon cancer cells [3]; time-course, compared to DMSO and etoposide)"
Cn1c(=O)c2[nH]c(Nc3ccccc3)nc2n(C)c1=O [CB002],2,increases apoptotic cells,increase of ethidium homodimer staining,does not increase,decrease in expression,increase,,,,,,,,,
Cn1c(=O)c2[nH]c(Nc3cccc(C(F)(F)F)c3)nc2n(C)c1=O [CB002-analog #4],,increases apoptotic cells,increase of ethidium homodimer staining,does not increase,decrease in expression,increased compared to DMSO,S-phase accumulation,30,no significant differences,smaller in size,decreases the population of proliferating cells,enhances cytotoxicity compared to the CB002 parent compound,decreased,increase,did not decrease over time
